According to ChEMBL document CHEMBL1201862, “PubChem BioAssay data set” (2004):
Activity calls are given as the source filed them.

Tests used:
Assay type in all cases: functional
[1] = target: Insulin-like growth factor 1 receptor (Homo sapiens, UniProt P08069); experiment: Navigating the Kinome. Panel member name: IGF1R
[2] = target: Receptor-type tyrosine-protein kinase FLT3 (Homo sapiens, UniProt P36888);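 further: FLT3 was tested as one member of a kinome-wide kinase panel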
[3] = target: Cyclin-dependent kinase 8 (Homo sapiens, UniProt P49336); experiment: Navigating the Kinome. Panel member name: CDK8
[4] = target: Cyclin-dependent kinase 9 (Homo sapiens, UniProt P50750);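 further: value from the CDK9 entry of a kinome-spanning kinase panel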
[5] = target: Leucine-rich repeat serine/threonine-protein kinase 2 (Homo sapiens, UniProt Q5S007);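 further: value from a broad kinome-wide panel profiling study in which LRRK2 was one of the kinases tested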
[6] = target: cAMP-dependent protein kinase catalytic subunit PRKX (Homo sapiens, UniProt P51817)
[7] = target: Ribosomal protein S6 kinase alpha-3 (Homo sapiens, UniProt P51812);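 further: measured within a kinome-wide profiling panel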
[8] = target: Macrophage colony-stimulating factor 1 receptor (Homo sapiens, UniProt P07333);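 further: value comes from the Navigating the Kinome screening panel, CSF1R member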
[9] = target: Serine/threonine-protein kinase TBK1 (Homo sapiens, UniProt Q9UHD2); experiment: Navigating the Kinome. Panel member name: TBK1
[10] = target: Mitogen-activated protein kinase kinase kinase kinase 5 (Homo sapiens, UniProt Q9Y4K4);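 further: measured as one member of a kinome-spanning kinase panel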
[11] = target: Cyclin-dependent kinase 19 (Homo sapiens, UniProt Q9BWU1); experiment: Navigating the Kinome. Panel member name: CDC2L6
[12] = target: Tyrosine-protein kinase receptor TYRO3 (Homo sapiens, UniProt Q06418);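 further: TYRO3 value obtained as one member of a kinome-wide profiling panel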
Chain of Tyrosine-protein kinase receptor TYRO3 (Q06418 whole entry): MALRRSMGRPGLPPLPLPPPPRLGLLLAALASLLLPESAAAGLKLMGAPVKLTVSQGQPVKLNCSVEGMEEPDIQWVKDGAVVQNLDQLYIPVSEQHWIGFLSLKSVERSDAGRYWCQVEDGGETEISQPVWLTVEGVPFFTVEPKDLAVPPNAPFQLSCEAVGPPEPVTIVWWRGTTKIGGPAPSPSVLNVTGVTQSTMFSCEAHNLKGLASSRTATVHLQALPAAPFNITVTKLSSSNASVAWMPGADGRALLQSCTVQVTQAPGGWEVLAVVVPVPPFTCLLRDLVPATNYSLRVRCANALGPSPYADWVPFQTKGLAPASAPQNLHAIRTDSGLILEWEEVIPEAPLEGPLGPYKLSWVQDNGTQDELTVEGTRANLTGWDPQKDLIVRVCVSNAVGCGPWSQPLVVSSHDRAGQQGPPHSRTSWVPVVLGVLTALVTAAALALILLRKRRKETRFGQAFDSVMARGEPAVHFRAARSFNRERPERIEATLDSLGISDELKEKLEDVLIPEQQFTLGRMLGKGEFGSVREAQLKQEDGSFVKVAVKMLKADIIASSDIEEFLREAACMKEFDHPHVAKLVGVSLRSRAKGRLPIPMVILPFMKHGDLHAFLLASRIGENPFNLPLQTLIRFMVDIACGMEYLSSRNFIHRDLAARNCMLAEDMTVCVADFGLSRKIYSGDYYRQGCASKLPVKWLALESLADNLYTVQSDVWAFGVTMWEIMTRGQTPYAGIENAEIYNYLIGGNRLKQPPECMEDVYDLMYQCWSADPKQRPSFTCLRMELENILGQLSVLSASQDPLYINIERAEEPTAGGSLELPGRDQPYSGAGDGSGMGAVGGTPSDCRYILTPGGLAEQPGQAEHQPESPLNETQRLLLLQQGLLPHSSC

[13] = target: Proto-oncogene tyrosine-protein kinase receptor Ret (Homo sapiens, UniProt P07949);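 further: measured within a kinome-wide profiling panel, RET as the panel member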
[14] = target: Serine/threonine-protein kinase pim-1 (Homo sapiens, UniProt P11309)
[15] = target: Glycogen synthase kinase-3 beta (Homo sapiens, UniProt P49841);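 further: value comes from a broad kinome profiling panel, with GSK3B as the panel member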
Chain of Glycogen synthase kinase-3 beta (P49841 whole entry): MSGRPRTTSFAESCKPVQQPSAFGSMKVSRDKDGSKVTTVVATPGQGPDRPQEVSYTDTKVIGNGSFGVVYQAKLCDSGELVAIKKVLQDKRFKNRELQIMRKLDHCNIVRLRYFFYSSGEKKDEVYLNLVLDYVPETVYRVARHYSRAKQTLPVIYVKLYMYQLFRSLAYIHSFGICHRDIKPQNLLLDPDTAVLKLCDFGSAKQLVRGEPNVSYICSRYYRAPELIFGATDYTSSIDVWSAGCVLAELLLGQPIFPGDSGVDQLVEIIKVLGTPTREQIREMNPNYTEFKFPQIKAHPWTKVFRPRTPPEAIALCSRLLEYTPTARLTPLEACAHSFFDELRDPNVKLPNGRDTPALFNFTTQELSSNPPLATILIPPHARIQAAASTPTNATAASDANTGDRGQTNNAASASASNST

[16] = target: Inhibitor of nuclear factor kappa-B kinase subunit epsilon (Homo sapiens, UniProt Q14164); experiment: Navigating the Kinome. Panel member name: IKBKE
[17] = target: Fibroblast growth factor receptor 1 (Homo sapiens, UniProt P11362)
[18] = target: Death-associated protein kinase 3 (Homo sapiens, UniProt O43293);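 further: measured as one member of a kinome-wide profiling panel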
[19] = target: MAP/microtubule affinity-regulating kinase 3 (Homo sapiens, UniProt P27448);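 further: MARK3 affinity measured as one member of a kinome panel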
Aurora kinase A = Aurora kinase A (Homo sapiens, UniProt O14965);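 further: value from the Navigating the Kinome kinase panel profiling, panel entry STK6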
[20] = target: Casein kinase I isoform alpha (Homo sapiens, UniProt P48729)
[21] = target: Leukocyte tyrosine kinase receptor (Homo sapiens, UniProt P29376); experiment: Navigating the Kinome. Panel member name: LTK
[22] = target: Tyrosine-protein kinase JAK3 (Homo sapiens, UniProt P52333)
[23] = target: Dual specificity tyrosine-phosphorylation-regulated kinase 1A (Homo sapiens, UniProt Q13627);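 further: measured against DYRK1A as one member of a broad kinome profiling panel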
[24] = target: 5'-AMP-activated protein kinase catalytic subunit alpha-1 (Homo sapiens, UniProt Q13131)
[25] = target: Macrophage-stimulating protein receptor (Homo sapiens, UniProt Q04912); experiment: Navigating the Kinome. Panel member name: MST1R
Chain of Macrophage-stimulating protein receptor (Q04912 25-304 limits assumed): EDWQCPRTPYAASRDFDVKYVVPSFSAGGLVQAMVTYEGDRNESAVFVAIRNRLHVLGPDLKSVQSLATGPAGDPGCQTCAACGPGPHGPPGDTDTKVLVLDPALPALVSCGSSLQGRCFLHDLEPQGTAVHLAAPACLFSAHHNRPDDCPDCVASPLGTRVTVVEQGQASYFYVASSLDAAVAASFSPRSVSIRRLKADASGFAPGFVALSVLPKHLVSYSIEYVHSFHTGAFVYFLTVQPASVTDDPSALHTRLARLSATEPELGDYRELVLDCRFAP
Chain of Macrophage-stimulating protein receptor (Q04912 310-1400 limits assumed): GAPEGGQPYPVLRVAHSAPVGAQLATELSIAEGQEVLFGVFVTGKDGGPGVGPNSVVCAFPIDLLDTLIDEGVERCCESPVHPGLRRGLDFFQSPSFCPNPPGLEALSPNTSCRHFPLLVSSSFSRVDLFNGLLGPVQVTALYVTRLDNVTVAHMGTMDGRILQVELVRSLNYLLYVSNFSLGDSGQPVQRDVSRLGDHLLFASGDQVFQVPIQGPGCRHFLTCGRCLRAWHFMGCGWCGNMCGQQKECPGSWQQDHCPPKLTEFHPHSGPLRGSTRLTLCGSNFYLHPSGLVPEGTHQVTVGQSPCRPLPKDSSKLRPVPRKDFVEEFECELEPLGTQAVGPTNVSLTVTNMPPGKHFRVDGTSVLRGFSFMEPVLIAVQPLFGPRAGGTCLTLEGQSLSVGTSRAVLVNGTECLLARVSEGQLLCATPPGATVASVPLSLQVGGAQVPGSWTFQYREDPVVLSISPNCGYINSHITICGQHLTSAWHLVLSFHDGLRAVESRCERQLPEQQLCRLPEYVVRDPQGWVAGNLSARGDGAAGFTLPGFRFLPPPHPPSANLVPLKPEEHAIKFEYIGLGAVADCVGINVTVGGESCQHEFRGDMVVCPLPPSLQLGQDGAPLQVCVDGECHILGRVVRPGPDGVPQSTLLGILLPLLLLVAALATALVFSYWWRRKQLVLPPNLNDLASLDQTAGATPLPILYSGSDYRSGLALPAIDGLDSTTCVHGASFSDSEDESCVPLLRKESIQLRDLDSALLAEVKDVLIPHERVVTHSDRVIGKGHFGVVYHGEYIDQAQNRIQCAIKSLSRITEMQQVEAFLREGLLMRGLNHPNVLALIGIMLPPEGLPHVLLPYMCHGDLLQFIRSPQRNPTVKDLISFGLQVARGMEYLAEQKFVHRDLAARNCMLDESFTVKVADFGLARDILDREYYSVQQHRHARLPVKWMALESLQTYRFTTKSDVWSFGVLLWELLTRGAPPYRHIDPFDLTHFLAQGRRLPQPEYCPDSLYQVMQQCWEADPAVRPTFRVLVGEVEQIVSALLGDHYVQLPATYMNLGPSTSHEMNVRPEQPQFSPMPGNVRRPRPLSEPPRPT

[26] = target: Tyrosine-protein kinase ABL1 (Homo sapiens, UniProt P00519)
[27] = target: cAMP-dependent protein kinase catalytic subunit alpha (Homo sapiens, UniProt P17612)
[28] = target: Mitogen-activated protein kinase kinase kinase kinase 2 (Homo sapiens, UniProt Q12851);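 further: measured as one member of a kinome-wide kinase panel, with MAP4K2 as the panel entry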
[29] = target: Mitogen-activated protein kinase 8 (Homo sapiens, UniProt P45983);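 further: value comes from one member of a kinome-wide kinase profiling panel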
[30] = target: Dual specificity protein kinase CLK4 (Homo sapiens, UniProt Q9HAZ1)
Chain of Dual specificity protein kinase CLK4 (Q9HAZ1 whole entry): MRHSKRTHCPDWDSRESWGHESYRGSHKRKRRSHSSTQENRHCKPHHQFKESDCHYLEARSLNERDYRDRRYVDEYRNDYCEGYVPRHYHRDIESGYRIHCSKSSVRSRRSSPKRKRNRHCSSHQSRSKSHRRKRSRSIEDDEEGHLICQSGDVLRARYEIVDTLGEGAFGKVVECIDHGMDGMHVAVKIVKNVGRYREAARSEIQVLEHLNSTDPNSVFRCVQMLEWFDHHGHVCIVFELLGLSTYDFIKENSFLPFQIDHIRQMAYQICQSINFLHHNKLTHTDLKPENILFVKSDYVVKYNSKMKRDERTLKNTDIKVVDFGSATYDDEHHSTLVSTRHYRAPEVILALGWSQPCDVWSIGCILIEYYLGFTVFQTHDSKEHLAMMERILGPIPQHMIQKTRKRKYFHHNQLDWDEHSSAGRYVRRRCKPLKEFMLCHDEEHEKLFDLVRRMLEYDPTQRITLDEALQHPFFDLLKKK

[31] = target: Tyrosine-protein kinase Lck (Homo sapiens, UniProt P06239);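 further: lck was assayed as one member of a kinase panel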
[32] = target: Dual specificity protein kinase CLK2 (Homo sapiens, UniProt P49760)
Chain of Dual specificity protein kinase CLK2 (P49760 whole entry): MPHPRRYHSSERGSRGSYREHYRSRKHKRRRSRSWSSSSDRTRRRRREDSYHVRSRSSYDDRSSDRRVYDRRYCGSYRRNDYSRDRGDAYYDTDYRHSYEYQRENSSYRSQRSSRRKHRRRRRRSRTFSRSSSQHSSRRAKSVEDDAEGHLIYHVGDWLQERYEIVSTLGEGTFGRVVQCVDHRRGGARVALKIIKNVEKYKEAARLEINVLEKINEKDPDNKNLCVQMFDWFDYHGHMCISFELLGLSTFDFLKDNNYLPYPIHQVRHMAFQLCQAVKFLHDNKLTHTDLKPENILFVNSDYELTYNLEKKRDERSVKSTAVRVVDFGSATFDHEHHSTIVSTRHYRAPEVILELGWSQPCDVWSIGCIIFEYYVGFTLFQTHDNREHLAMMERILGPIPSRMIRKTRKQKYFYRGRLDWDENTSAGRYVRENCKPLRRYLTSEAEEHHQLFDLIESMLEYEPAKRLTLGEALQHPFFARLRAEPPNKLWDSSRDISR

[33] = target: Platelet-derived growth factor receptor alpha (Homo sapiens, UniProt P16234); experiment: Navigating the Kinome. Panel member name: PDGFRA
[34] = target: Tyrosine-protein kinase JAK2 (Homo sapiens, UniProt O60674);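 further: JAK2 tested as one member of a kinase panel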
[35] = target: Dual specificity mitogen-activated protein kinase kinase 2 (Homo sapiens, UniProt P36507); experiment: Navigating the Kinome. Panel member name: MAP2K2
Chain of Dual specificity mitogen-activated protein kinase kinase 2 (P36507 whole entry): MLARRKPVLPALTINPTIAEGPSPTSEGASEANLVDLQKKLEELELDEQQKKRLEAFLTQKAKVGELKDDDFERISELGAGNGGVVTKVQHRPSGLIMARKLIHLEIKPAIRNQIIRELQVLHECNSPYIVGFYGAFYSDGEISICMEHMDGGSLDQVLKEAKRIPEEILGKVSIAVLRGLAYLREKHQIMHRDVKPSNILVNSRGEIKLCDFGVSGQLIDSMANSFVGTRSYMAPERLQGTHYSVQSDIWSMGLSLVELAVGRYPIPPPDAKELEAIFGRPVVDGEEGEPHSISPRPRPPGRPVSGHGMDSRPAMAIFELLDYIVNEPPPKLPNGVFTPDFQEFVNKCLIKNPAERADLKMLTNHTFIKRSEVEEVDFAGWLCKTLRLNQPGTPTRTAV

[36] = target: ALK tyrosine kinase receptor (Homo sapiens, UniProt Q9UM73);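 further: ALK tested as one member of a kinase panel screen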
[37] = target: Dual specificity mitogen-activated protein kinase kinase 1 (Homo sapiens, UniProt Q02750); experiment: Navigating the Kinome. Panel member name: MAP2K1
[38] = target: Mitogen-activated protein kinase kinase kinase kinase 4 (Homo sapiens, UniProt O95819)
[39] = target: Serine/threonine-protein kinase PAK 4 (Homo sapiens, UniProt O96013);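 further: value obtained within a kinome profiling panel in which PAK4 was one of the panel members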
[40] = target: G protein-coupled receptor kinase 5 (Homo sapiens, UniProt P34947); experiment: Navigating the Kinome. Panel member name: GPRK5
[41] = target: Vascular endothelial growth factor receptor 2 (Homo sapiens, UniProt P35968)
[42] = target: Tyrosine-protein kinase Fyn (Homo sapiens, UniProt P06241)
[43] = target: Glycogen synthase kinase-3 alpha (Homo sapiens, UniProt P49840);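 further: GSK3A result taken from a broad kinome-wide kinase panel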
[44] = target: Calcium/calmodulin-dependent protein kinase type II subunit alpha (Homo sapiens, UniProt Q9UQM7); experiment: Navigating the Kinome. Panel member name: CAMK2A
[45] = target: Mitogen-activated protein kinase 14 (Homo sapiens, UniProt Q16539);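 further: part of a kinome-wide panel, MAPK14 entry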
[46] = target: Mitogen-activated protein kinase 9 (Homo sapiens, UniProt P45984);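 further: value from a kinome panel profiling assay, MAPK9 panel entry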
[47] = target: Serine/threonine-protein kinase TAO1 (Homo sapiens, UniProt Q7L7X3)
[48] = target: Vascular endothelial growth factor receptor 1 (Homo sapiens, UniProt P17948);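 further: measured within a kinome-wide profiling panel, FLT1 as the panel member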
[49] = target: Melanin-concentrating hormone receptor 1 (Homo sapiens, UniProt Q99705); experiment: Late-stage fluorescence-based counterscreen for antagonists of the G-protein coupled receptor 7 (GPR7): cell-based dose response assay to identify antagonists of the melanin-concentrating hormone receptor 1 (MCHR1) Set 5.
Chain of Melanin-concentrating hormone receptor 1 (Q99705 whole entry): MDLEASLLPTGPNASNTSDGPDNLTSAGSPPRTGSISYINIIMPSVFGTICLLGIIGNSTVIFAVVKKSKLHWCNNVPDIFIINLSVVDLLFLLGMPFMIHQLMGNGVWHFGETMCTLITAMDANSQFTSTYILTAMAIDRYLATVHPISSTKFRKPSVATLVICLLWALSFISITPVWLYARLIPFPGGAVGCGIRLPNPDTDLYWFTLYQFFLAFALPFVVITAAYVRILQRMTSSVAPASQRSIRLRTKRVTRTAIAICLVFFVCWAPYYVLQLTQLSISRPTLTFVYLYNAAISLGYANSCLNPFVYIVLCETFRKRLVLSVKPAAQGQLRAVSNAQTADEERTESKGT

[50] = target: Neuropeptides B/W receptor type 1 (Homo sapiens, UniProt P48145); experiment: GPR7 antagonist potency, late-stage follow-up, cell-based, fluorescence, dose response, set 5 (AID 588566)
[51] = target: T1, Rac GTPase-activating protein 1 (Homo sapiens, UniProt Q9H0H5); experiment: MgcRacGAP GTPase-activating activity inhibitors, confirmation, biochemical, ADP Hunter fluorescence, primary and confirmatory (AID 624330)
T1 sequence (Q9H0H5 whole entry): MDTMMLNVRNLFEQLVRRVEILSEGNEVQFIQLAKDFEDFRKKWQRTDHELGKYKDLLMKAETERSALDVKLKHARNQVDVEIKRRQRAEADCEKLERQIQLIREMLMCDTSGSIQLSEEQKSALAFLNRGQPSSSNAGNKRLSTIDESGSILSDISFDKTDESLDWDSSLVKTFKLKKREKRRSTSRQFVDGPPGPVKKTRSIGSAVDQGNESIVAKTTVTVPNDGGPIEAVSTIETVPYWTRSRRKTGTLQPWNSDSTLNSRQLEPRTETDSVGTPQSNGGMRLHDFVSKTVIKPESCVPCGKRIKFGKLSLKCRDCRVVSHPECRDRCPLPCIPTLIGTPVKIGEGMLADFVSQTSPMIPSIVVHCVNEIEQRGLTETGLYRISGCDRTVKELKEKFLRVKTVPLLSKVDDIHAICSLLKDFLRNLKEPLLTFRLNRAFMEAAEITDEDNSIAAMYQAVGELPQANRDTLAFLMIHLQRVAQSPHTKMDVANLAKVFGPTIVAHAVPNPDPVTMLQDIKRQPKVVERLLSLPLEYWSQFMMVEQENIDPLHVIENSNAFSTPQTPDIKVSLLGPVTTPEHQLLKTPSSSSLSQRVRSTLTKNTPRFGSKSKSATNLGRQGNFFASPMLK

[52] = target: T2, DNA dC->dU-editing enzyme APOBEC-3A (Homo sapiens, UniProt P31941); experiment: SAR analysis of small molecule inhibitors of APOBEC3A DNA Deaminase via a fluorescence-based single-stranded DNA deaminase assay - Set 2.; settings: read-out: IC50_Mean
T2 sequence (P31941 whole entry): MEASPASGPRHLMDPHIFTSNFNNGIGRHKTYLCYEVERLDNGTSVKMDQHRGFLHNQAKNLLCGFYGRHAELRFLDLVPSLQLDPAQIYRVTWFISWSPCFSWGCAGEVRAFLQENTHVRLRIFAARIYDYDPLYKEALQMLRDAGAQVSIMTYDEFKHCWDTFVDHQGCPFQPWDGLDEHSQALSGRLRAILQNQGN

[53] = target: T2, DNA dC->dU-editing enzyme APOBEC-3A; experiment: APOBEC3A DNA deaminase inhibitors, dose response, biochemical (AID 504722)
[54] = target: T3, DNA dC->dU-editing enzyme APOBEC-3G (Homo sapiens, UniProt Q9HC16); experiment: Dose Response confirmation of small molecule APOBEC3G DNA Deaminase Inhibitors via a fluorescence-based single-stranded DNA deaminase assay. [Related pubchem assays (depositor defined):AID493012, AID493028]
T3 sequence (Q9HC16 whole entry): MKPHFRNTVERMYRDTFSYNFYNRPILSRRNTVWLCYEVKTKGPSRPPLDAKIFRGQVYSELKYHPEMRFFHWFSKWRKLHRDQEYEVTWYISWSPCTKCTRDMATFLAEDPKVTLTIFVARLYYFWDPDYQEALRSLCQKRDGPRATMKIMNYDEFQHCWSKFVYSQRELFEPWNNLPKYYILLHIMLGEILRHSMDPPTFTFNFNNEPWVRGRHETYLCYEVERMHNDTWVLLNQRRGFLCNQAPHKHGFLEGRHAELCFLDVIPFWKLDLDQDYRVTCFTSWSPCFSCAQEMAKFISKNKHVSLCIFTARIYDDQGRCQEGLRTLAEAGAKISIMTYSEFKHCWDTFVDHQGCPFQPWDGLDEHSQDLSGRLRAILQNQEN

[55] = target: T3, DNA dC->dU-editing enzyme APOBEC-3G; experiment: SAR analysis of small molecule inhibitors of APOBEC3G DNA Deaminase via a fluorescence-based single-stranded DNA deaminase assay - Set 2.; settings: read-out: IC50_Mean

In the case of `Cc1cc(O)nc2[nH]nc(-c3cccc(-c4ccc(Cl)cc4)c3)c12`, the Ki [1] is reported as > 2.51 µM (inactive), the Ki [2] is reported as > 3.16 µM (inactive) and the Ki [3] is reported as > 3.98 µM (inactive). For the same molecule, the Ki [4] was > 1.58 µM (inactive), the Ki [5] was > 2.51 µM (inactive) and the Ki [6] was 0.00631 µM (active). The Ki [7] was > 3.98 µM (inactive), the Ki [8] was > 2.51 µM (inactive) and the Ki [9] was > 3.16 µM (inactive). The Ki [10] was > 3.98 µM (inactive), the Ki [11] was > 100 µM (inactive) and the Ki [12] was > 3.16 µM (inactive). For the same molecule, the Ki [13] was > 3.16 µM (inactive), the Ki [14] was > 6.31 µM (inactive) and the Ki [15] was > 3.98 µM (inactive). The Ki [16] was > 3.16 µM (inactive), the Ki [17] was > 3.98 µM (inactive) and the Ki [18] was > 5.01 µM (inactive). For the same molecule, the Ki [19] was > 5.01 µM (inactive), the Ki (Aurora kinase A) was > 1.58 µM (inactive) and the Ki [20] was > 3.98 µM (inactive). The Ki [21] was > 2.51 µM (inactive), the Ki [22] was > 5.01 µM (inactive) and the Ki [23] was > 2 µM (inactive). The Ki [24] was > 3.16 µM (inactive), the Ki [25] was > 3.98 µM (inactive) and the Ki [26] was > 3.98 µM (inactive). The Ki [27] was > 1.26 µM (inactive), the Ki [28] was > 2.51 µM (inactive) and the Ki [29] was > 5.01 µM (inactive). For the same molecule, the Ki [30] was > 2.51 µM (inactive), the Ki [31] was > 6.31 µM (inactive) and the Ki [32] was > 3.98 µM (inactive). The Ki [33] was > 2.51 µM (inactive), the Ki [34] was > 2.51 µM (inactive) and the Ki [35] was > 3.98 µM (inactive). For the same molecule, the Ki [36] was > 6.31 µM (inactive), the Ki [37] was > 3.16 µM (inactive) and the Ki [38] was > 5.01 µM (inactive). The Ki [39] was 1.58 µM (active), the Ki [40] was > 3.98 µM (inactive) and the Ki [41] was > 2.51 µM (inactive). For the same molecule, the Ki [42] was > 6.31 µM (inactive), the Ki [43] was > 3.98 µM (inactive) and the Ki [44] was > 7.94 µM (inactive). For the same molecule, the Ki [45] was > 3.98 µM (inactive), the Ki [46] was > 3.98 µM (inactive) and the Ki [47] was > 6.31 µM (inactive). For the same molecule, the Ki [48] was > 3.98 µM (inactive).

In the case of `CN(C)C(=O)c1ccc(Oc2c(Cl)cnn(Cc3cccc4ccccc34)c2=O)cc1`, the IC50 [49] is reported as 7.88 µM (active) and the IC50 [50] is reported as 9.29 µM (active).

For `O=c1c2ccccc2n2c(=S)[nH]nc2n1-c1ccccc1`, the IC50 [51] was 25.8 µM (active), the IC50 [52] was > 99 µM (inactive) and the IC50 [53] was > 100 µM (inactive). The IC50 [54] was 4.67 µM (active) and the IC50 [55] was 0.376 µM (active).
